From ChEMBL document CHEMBL1128393 (J Med Chem, 1995) come the findings set out here.

In general, inhibition refers to the relative decrease from the control value, in per cent. The low end stands for little suppression, the high end for strong suppression. Usually IC50 stands for the concentration needed to halve the response being measured. Low readings indicate inhibition by little substance, high ones a need for much substance. Broadly, the Inhibition is how much of the control response was suppressed.

In data set [1] the target is T1, Cytochrome P450 18 hydroxylase (Cytochrome P450 11B2, mitochondrial) (Homo sapiens, UniProt P19099).
T1 sequence (P19099 whole entry): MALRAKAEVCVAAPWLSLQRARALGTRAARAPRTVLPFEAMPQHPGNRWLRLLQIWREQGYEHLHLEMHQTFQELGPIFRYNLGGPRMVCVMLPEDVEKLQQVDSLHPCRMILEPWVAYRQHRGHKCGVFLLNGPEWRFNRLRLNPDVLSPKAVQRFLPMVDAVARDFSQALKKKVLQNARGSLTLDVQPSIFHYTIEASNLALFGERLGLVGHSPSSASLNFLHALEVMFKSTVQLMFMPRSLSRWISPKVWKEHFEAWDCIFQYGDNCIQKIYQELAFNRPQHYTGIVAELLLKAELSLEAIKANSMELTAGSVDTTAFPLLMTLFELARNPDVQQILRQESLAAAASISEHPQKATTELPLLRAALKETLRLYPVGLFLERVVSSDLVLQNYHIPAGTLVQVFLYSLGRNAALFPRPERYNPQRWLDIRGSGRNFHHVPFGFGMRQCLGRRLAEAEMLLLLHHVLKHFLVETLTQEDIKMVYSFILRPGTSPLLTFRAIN
Briefly: in vitro. As to conditions: cattle.

The target in data set [2] is T2, Cytochrome P450 17 (Steroid 17-alpha-hydroxylase/17,20 lyase) (Rattus norvegicus, UniProt P11715).
T2 sequence (P11715 whole entry): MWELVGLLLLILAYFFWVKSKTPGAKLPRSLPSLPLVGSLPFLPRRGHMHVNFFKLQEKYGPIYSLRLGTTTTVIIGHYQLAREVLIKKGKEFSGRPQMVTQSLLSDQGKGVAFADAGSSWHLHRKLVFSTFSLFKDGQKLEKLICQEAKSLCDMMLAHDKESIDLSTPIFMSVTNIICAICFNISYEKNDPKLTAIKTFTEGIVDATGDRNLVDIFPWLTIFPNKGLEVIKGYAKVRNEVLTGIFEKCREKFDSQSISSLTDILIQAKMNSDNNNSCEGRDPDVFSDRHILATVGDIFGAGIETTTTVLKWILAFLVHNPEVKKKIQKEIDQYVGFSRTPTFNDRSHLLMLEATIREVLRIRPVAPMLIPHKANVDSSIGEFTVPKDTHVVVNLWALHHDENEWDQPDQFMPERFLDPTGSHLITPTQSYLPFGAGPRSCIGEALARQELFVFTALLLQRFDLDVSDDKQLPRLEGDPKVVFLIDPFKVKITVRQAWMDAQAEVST
As to the kind of experiment: in vitro.

Data set [3] deals with T3, Cytochrome P450 11B2, mitochondrial (Rattus norvegicus, UniProt P30099).
T3 sequence (P30099 whole entry): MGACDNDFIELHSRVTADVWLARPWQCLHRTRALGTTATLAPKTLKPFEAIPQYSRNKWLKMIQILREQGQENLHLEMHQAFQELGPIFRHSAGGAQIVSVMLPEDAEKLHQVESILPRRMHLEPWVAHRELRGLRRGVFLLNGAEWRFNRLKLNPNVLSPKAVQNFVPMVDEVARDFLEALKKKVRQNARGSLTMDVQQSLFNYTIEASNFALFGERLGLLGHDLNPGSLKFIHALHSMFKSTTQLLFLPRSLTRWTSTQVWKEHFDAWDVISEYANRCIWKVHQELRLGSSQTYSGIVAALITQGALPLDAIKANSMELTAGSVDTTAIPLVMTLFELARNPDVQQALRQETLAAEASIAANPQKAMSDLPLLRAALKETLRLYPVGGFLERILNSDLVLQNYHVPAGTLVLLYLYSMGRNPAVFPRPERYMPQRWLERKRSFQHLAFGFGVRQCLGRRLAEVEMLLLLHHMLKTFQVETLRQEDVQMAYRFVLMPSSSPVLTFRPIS

The species entered for data set [4] is Rattus norvegicus. In kind it is functional.
Data set [5] is filed under the species Rattus norvegicus. Type of data set: functional. The source holds these as a separate data set.
For data set [6], the species on record is Rattus norvegicus. Type of data set: functional. This is another data set of the same source.
Data set [7] is filed under the species Rattus norvegicus. In kind it is functional. The source holds these as a separate data set.
The target of data set [8] is T3, Cytochrome P450 11B2, mitochondrial. This is another data set of the same source.
The species entered for data set [9] is Rattus norvegicus. In kind it is functional. The source holds these as a separate data set.
Data set [10] addresses T4, Aromatase (Rattus norvegicus, UniProt P22443).
T4 sequence (P22443 whole entry): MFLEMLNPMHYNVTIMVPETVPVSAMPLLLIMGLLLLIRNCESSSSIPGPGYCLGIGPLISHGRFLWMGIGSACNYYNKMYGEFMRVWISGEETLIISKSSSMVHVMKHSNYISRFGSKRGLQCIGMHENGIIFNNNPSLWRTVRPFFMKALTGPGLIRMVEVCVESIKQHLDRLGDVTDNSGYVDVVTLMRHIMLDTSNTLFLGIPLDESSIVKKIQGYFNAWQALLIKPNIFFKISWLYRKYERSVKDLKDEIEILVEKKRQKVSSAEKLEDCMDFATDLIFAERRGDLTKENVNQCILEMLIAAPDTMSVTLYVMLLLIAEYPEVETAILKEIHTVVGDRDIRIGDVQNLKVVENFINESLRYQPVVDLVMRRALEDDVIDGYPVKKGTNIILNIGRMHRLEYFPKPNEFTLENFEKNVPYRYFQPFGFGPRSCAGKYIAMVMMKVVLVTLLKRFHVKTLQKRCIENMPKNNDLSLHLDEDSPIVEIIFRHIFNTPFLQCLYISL
The note with it: in vivo, 30 mg/kg.

The species entered for data set [11] is Rattus norvegicus. Type of data set: functional. The source holds these as a separate data set.
The species entered for data set [12] is Rattus norvegicus. In kind it is functional. This is another data set of the same source.
Data set [13] concerns the target T4, Aromatase. As to conditions: in vivo, 30 mg/kg. The source holds these as a separate data set.
The target of data set [14] is T5, Cytochrome P450 11B1, mitochondrial (Homo sapiens, UniProt P15538).
T5 sequence (P15538 whole entry): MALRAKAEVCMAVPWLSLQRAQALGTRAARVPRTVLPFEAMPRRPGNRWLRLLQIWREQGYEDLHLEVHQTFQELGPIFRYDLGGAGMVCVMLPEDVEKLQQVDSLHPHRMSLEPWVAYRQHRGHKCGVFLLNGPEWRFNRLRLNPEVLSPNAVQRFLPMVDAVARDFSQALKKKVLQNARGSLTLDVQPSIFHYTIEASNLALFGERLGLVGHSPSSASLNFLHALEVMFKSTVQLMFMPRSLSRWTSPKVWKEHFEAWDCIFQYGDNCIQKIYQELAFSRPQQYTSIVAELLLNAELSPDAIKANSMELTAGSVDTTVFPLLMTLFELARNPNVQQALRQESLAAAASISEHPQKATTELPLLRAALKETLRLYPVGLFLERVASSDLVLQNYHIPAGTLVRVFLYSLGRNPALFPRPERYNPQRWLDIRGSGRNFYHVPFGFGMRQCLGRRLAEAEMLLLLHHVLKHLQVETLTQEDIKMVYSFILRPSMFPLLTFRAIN

The species entered for data set [15] is Rattus norvegicus. In kind it is functional. The source holds these as a separate data set.
The species entered for data set [16] is Rattus norvegicus. In kind it is functional. The source holds these as a separate data set.
Data set [17] is filed under the species Rattus norvegicus. In kind it is functional. This is another data set of the same source.
For data set [18], the species on record is Rattus norvegicus. In kind it is functional. The source holds these as a separate data set.
The species entered for data set [19] is Rattus norvegicus. Type of data set: functional. The source holds these as a separate data set.
The target of data set [20] is T6, Steroid 17-alpha-hydroxylase/17,20 lyase (Rattus norvegicus, UniProt P11715).
T6 sequence (P11715 whole entry): T2 sequence (P11715 whole entry)
As to conditions: 125 µM.

Data set [21] is filed under the species Rattus norvegicus. In kind it is functional. This is another data set of the same source.
For data set [22], the species on record is Rattus norvegicus. In kind it is functional. This is another data set of the same source.
For data set [23], the species on record is Rattus norvegicus. Type of data set: functional. This is another data set of the same source.
The species named for data set [24] is Rattus norvegicus. In kind it is functional. This is another data set of the same source.
Data set [25] concerns the target T4, Aromatase.
Data set [26] is filed under the species Rattus norvegicus. Type of data set: functional. The source holds these as a separate data set.
The species entered for data set [27] is Rattus norvegicus. In kind it is functional. This is another data set of the same source.
Data set [28] addresses T3, Cytochrome P450 11B2, mitochondrial. This is another data set of the same source.
Data set [29] addresses T4, Aromatase. As to conditions: in vivo, 30 mg/kg. This is another data set of the same source.
Data set [30] deals with T4, Aromatase. The note with it: in vivo, 30 mg/kg. This is another data set of the same source.
In data set [31] the target is T4, Aromatase. The note with it: in vivo, 30 mg/kg. The source holds these as a separate data set.

Compound `Oc1ccc2c(c1)CCC1C(c3ccncc3)C21` (stereo not given) displayed an inhibition at 1 µM in data set [1] of 36%. The compound further showed an inhibition at 125 µM in [2] of 41%.
Regarding `Oc1ccc2c(c1)C1C(CC2)C1c1ccncc1` (stereo not given), in [3], the midpoint of inhibition, the IC50, lay at 7 µM.
As to `c1ccc2c(c1)CCC1C(c3ccncc3)C21` (stereo not given), the Tumors was determined as 47% in the data set filed under Rattus norvegicus [4], 28% in the data set filed under Rattus norvegicus [5], 9% in the data set filed under Rattus norvegicus [11] and 16% in the data set listed under Rattus norvegicus [12]. In addition, in data set [1], the inhibition at 1 µM is 55%. In addition, the “Change of tumor area” value in the data set listed under Rattus norvegicus [6] is 36%. Also, the No. of tumors was 1 in the data set filed under Rattus norvegicus [7] and 32 in the data set listed under Rattus norvegicus [9]. The same compound registered an IC50 in data set [8] of 3 µM. In addition, the Mean on Aromatase [10] was found to be 124. The inhibition at 125 µM in [2] is 36%.
For `COc1cccc2c1CCC1C(c3ccncc3)C21` (stereo not given), in [1], at 1 µM the inhibition was 38%. Besides, the inhibition at 125 µM in [2] was found to be 51%.
`COc1ccc2c(c1)C1C(CC2)C1(C)c1ccncc1` (stereo not given) had an Effect at Aromatase [13] of 139. Moreover, testing at 125 µM in [2] gave an inhibition of 68%.
As to `COc1ccc2c(c1)C1C(CC2)C1c1ccncc1` (single isomer, unassigned; (+)), the half-inhibitory concentration (IC50) was determined as 6 µM in [3] and 95 µM in [14]. In data set [2], this compound returned an inhibition at 125 µM of 54%.
With `COc1ccc2c(c1)C1C(CC2)C1c1ccncc1` (stereo in doubt; 4), the figures for the “Change of tumor area” value in the data set filed under Rattus norvegicus [15] and in the data set listed under Rattus norvegicus [6] were 55% and 29%, respectively. Besides, the No. of tumors in the data set filed under Rattus norvegicus [16] is on record as 33; in the data set filed under Rattus norvegicus [21], 25; in the data set listed under Rattus norvegicus [26] it was 10; in the data set listed under Rattus norvegicus [27], 5. The Tumors in the data set filed under Rattus norvegicus [4] stood at 52%; in the data set filed under Rattus norvegicus [17], 20%; in the data set listed under Rattus norvegicus [18] it was 37%; in the data set filed under Rattus norvegicus [19], 15%; in the data set filed under Rattus norvegicus [22], 18%; in the data set filed under Rattus norvegicus [23] it was 43%. Also, the Tumors was determined as 0% in the data set filed under Rattus norvegicus [24] and 15% in the data set listed under Rattus norvegicus [12]. Further, the 50% inhibitory concentration (IC50) in data set [3] was found to be 15 µM; in data set [14], 75 µM; against Aromatase [25], 0.265 µM. In addition, in [1], the inhibition at 1 µM was found to be 45%. Also, the Inhibition in data set [20] was 47%. For the same compound, the Effect at Aromatase [13] was found to be 132.
At Aromatase [13], `COc1cc2c(cc1Br)CCC1C(c3ccncc3)C21` (stereo in doubt; 7) gave an Effect of 176.
As to `COc1ccc2c(c1)C1C(CC2)C1c1ccncc1` (stereo in doubt; (-)-4), the values for the IC50 in [3] and in data set [14] were 10 µM and 30 µM, respectively. In addition, the Inhibition in data set [20] was determined as 45%.
As to `CCC1(c2ccc(N)cc2)CCC(=O)NC1=O` (stereo not given) [AMINOGLUTETHIMIDE], the half-maximal inhibitory concentration (IC50) in [8] was 80 µM; in data set [28], 50 µM.
In the case of `C[C@]12CCC(=O)C=C1CC[C@@H]1[C@@H]2CC[C@]2(C)C(=O)CC[C@@H]12` [ANDROSTENEDIONE], the Mean on Aromatase [29] turned out to be 138; at Aromatase [30] it was 187; on Aromatase [31] it was 202.
